The target in the test is T1, MavL(42-435) (Legionella pneumophila, UniProt Q5ZSJ1).
T1 construct: gene lpg2526
To be noted: 15 mM Tris-HCl pH 8.0, 50 mM NaCl, 20 °C; 300 µM ligand into 30 µM protein.

Molecules are shown by their SMILES.

T1 sequence (Q5ZSJ1 42-435 limits assumed): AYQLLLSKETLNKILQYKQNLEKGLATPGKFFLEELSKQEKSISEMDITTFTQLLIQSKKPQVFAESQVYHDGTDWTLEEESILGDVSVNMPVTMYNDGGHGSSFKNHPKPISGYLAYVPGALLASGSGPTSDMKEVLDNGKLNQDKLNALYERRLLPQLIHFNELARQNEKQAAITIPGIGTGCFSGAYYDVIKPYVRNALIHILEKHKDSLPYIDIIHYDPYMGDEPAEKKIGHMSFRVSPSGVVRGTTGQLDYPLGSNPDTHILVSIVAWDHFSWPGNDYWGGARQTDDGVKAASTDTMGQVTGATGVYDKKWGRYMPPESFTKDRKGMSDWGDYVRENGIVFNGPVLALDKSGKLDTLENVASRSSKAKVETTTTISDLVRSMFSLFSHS

For the molecule `Nc1ncnc2c1ncn2[C@@H]1O[C@H](COP(=O)(O)OP(=O)(O)OC[C@H]2OC(O)[C@H](O)[C@@H]2O)[C@@H](O)[C@H]1O` (stereo partly shown) [ADP-ribose], the Kd was 13 µM.

As usually defined, the Kd is the free concentration of one partner at which half of the binding sites on the other are occupied at equilibrium, for simple one-to-one binding.

For the origin of these results see publication PMC8699189 (Biomolecules, 2021).
